# Where “and” joins values, the source holds several entries; their conditions need not be identical. Equal values may be shown once. Read-outs that look alike come from different tables or passages of the source.
# How the values were obtained:
# MDM2 [1] = biological target: T1, MDM2 (Homo sapiens, UniProt Q00987); assay: MDM2 binding (FP53 displacement) by HPLC fractions of resynthesized hit reactions
# Protocol: For hits from the MDM2 screen, reactions were performed in the same way but at a 50 nmol scale, and purified with the same method but a 10–80% gradient of solvent B and over 22 min. Fractions were lyophilized and dissolved in 40 μL of DMSO, 160 μL of water was added, and 5 μL of each fraction was transferred to a 384-well plate (Nunc, 264705), and 15 μL of premixed MDM2/FP53 peptide were added (final concentrations: 1.2 μM MDM2, 50 nM FP53, 5% DMSO).
# MDM2 [2] = biological target: T1, MDM2; assay: IC50 of purified MDM2-binding macrocycles, fluorescence polarization competition with FP53; conditions: for IC50: HPLC-purified macrocycle, FP displacement of fluorescent reporter peptide; for displacement of fluorescent peptide probe from MDM2: HPLC-purified macrocycles, FP competition; for anisotropy: replicates 1-3
# Protocol: Volumes of 5 μL of purified macrocycles (20 mM in DMSO) were serial diluted two-fold in 100% DMSO in a low dead-volume ECHO source plate. Using acoustic droplet transfer, 150 nL of each dilution was transferred to a 384 well low volume polystyrene plate (Nunc, 264705). […] Fluorescence anisotropy was measured as described above. The percentage of bound inhibitor was calculated using the following equation4 %boundinhibitor=N−X/N−P×100 where N is the average anisotropy of the DMSO controls, X is the anisotropy value obtained for each well, and P is the average anisotropy of the unbound probe. The IC50s were determined by plotting the percent of bound inhibitor against the logarithm of the corresponding macrocycle concentration, and the curves were fitted in GraphPad Prism 6 as described above.
# MDM2 [3] = biological target: T1, MDM2; assay: Kd of MDM2 binders by surface plasmon resonance (SPR); assay type: binding; conditions: unlabeled macrocycles; triplicate
# Protocol: Experiments were performed using a GE Healthcare Biacore 8 K instrument. MDM2 (10 μg/mL) was dissolved in 10 mM MES buffer (pH 6.0) and immobilized on three channels of a CM5 series S chip (Cytiva, 29104988) using EDC/NHS amine coupling conditions in running buffer (10 mM PBS pH 7.4, 150 mM NaCl, 3 mM KCl, and 0.005% v/v Tween 20). Typical immobilization level was 6000 to 7000 resonance units (RUs). The reference cell was treated the same way without MDM2. For the measurement of binding kinetics and dissociation constants, five serial dilutions (3-fold) of macrocycles plus a DMSO blank were prepared in running buffer (10 mM PBS pH 7.4, 150 mM NaCl, 3 mM KCl, and 0.005% v/v Tween 20, and 0.5% v/v DMSO) and analyzed in single cycle kinetics mode with contact and dissociation times of 120 s and 60 s, respectively. The data was collected and analyzed using the Biacore 8 K Control Software.
# Supplementary Figure 14. Binding of macrocycles to MDM2 measured by SPR. a, Single-cycle SPR sensorgrams for fluorescein-labeled macrocycles, positive control nutlin-3a (not fluorescein labeled), and negative controls (thrombin inhibitors; not fluorescein labeled). RU, response unit. b, Single-cycle SPR sensorgrams for macrocycles M6, M7, M8 and M10 (not fluorescein-labeled), performed in triplicate.
# (1 picture or pasted object on this page, not shown here)
# MDM2 [4] = conditions: MDM2 inhibitor in clinical studies; literature value, no reference given; read-out: HTRF IC50; cited from earlier work
# MDM2 [5] = biological target: T1, MDM2; assay: MDM2 binding screen of Libraries 3 and 4: displacement of fluorescent probe F-M8 at 750 nM macrocycle; conditions: 750 nM macrocycle; crude reaction; probe F-M8
# Method in brief: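 Competition with nutlin-3a was run using the fluorescein conjugate. Library members came from scaffolds reacted 6 h at room temperature with carboxylic acids (20 equiv.), HBTU and DABCO in DMSO. Quenching was overnight in Tris-Cl pH 7.4 buffer with 0.01% Tween20.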
# [6] = prodrug; cited from earlier work
# [7] = HPLC Fraction 1 of acylation reaction
# [8] = HPLC Fraction 2 of acylation reaction
# [9] = HPLC Fraction 3 of acylation reaction
# [10] = HPLC Fraction 4 of acylation reaction
# [11] = HPLC Fraction 5 of acylation reaction
# [12] = HPLC Fraction 6 of acylation reaction
# [13] = HPLC Fraction 7 of acylation reaction
# [14] = HPLC Fraction 8 of acylation reaction
# [15] = HPLC Fraction 9 of acylation reaction
# [16] = HPLC Fraction 10 of acylation reaction
# [17] = HPLC Fraction 11 of acylation reaction
# [18] = HPLC Fraction 12 of acylation reaction
# [19] = HPLC Fraction 13 of acylation reaction
# [20] = HPLC Fraction 14 of acylation reaction
# [21] = HPLC Fraction 15 of acylation reaction
# [22] = HPLC Fraction 16 of acylation reaction
# [23] = HPLC Fraction 17 of acylation reaction
# [24] = HPLC Fraction 18 of acylation reaction
# [25] = HPLC Fraction 19 of acylation reaction
# [26] = HPLC Fraction 20 of acylation reaction
# [27] = average of 3 replicates, read-out: IC50 Average
# [28] = replicate 1, read-out: IC50 Replicate 1
# [29] = replicate 2, read-out: IC50 Replicate 2
# [30] = replicate 3, read-out: IC50 Replicate 3
# T1 sequence (Q00987 whole entry): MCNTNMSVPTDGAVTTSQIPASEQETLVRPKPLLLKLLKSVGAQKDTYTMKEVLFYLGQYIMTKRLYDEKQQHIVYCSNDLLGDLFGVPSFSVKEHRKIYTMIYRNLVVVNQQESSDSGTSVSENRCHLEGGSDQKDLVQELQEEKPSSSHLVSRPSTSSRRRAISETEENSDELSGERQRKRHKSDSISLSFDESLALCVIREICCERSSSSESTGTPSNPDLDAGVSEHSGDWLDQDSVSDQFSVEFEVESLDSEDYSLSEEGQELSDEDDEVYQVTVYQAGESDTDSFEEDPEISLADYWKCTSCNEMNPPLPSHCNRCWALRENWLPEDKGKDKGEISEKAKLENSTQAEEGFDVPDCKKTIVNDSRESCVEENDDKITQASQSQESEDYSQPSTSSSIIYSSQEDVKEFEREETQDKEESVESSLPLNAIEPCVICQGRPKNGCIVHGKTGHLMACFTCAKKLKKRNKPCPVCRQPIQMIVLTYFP
structure (smiles),measurement,setting,value
O=C(NC[C@@H]1NC(=O)[C@H]2CCCN(C2)C(=O)CCSSCCNC(=O)[C@H](Cc2c[nH]c3ccccc23)NC1=O)c1ccc(Cl)s1 [M6],Fraction bound (fraction fluorescent probe displaced),MDM2 [1]; [7],-0.09
same,Fraction bound (fraction fluorescent probe displaced),MDM2 [1]; [8],0.04
same,Fraction bound (fraction fluorescent probe displaced),MDM2 [1]; [9],0.0145
same,Fraction bound (fraction fluorescent probe displaced),MDM2 [1]; [10],0.04
same,Fraction bound (fraction fluorescent probe displaced),MDM2 [1]; [11],-0.0633
same,Fraction bound (fraction fluorescent probe displaced),MDM2 [1]; [12],-0.0373
same,Fraction bound (fraction fluorescent probe displaced),MDM2 [1]; [13],-0.0114
same,Fraction bound (fraction fluorescent probe displaced),MDM2 [1]; [14],-0.0114
same,Fraction bound (fraction fluorescent probe displaced),MDM2 [1]; [15],0.0664
same,Fraction bound (fraction fluorescent probe displaced),MDM2 [1]; [16],-0.0373
same,Fraction bound (fraction fluorescent probe displaced),MDM2 [1]; [17],-0.09
same,Fraction bound (fraction fluorescent probe displaced),MDM2 [1]; [18],-0.0633
same,Fraction bound (fraction fluorescent probe displaced),MDM2 [1]; [19],-0.0373
same,Fraction bound (fraction fluorescent probe displaced),MDM2 [1]; [20],0.27
same,Fraction bound (fraction fluorescent probe displaced),MDM2 [1]; [21],-0.22
same,Fraction bound (fraction fluorescent probe displaced),MDM2 [1]; [22],-0.0114
same,Fraction bound (fraction fluorescent probe displaced),MDM2 [1]; [23],0.04
same,Fraction bound (fraction fluorescent probe displaced),MDM2 [1]; [24],-0.0373
same,Fraction bound (fraction fluorescent probe displaced),MDM2 [1]; [25],-0.24
same,Fraction bound (fraction fluorescent probe displaced),MDM2 [1]; [26],-0.0633
same,IC50,MDM2 [2]; [27],2400 nM
same,IC50,MDM2 [2]; [28],2600 nM
same,IC50,MDM2 [2]; [29],1900 nM
same,IC50,MDM2 [2]; [30],2600 nM
same,displacement of fluorescent peptide probe from MDM2,MDM2 [2],efficiently displaced
same,anisotropy,MDM2 [2]; Log[Macrocycle] M -4.0,25 and 23 and 22
same,anisotropy,MDM2 [2]; Log[Macrocycle] M -4.3,31 and 28 and 30
same,anisotropy,MDM2 [2]; Log[Macrocycle] M -4.6,33 (2×) and 32
same,anisotropy,MDM2 [2]; Log[Macrocycle] M -4.9,38 and 32 and 40
same,anisotropy,MDM2 [2]; Log[Macrocycle] M -5.2,47 and 39 and 44
same,anisotropy,MDM2 [2]; Log[Macrocycle] M -5.5,51 and 45 and 47
same,anisotropy,MDM2 [2]; Log[Macrocycle] M -5.8,62 and 52 and 55
same,anisotropy,MDM2 [2]; Log[Macrocycle] M -6.1,69 and 59 and 62
same,anisotropy,MDM2 [2]; Log[Macrocycle] M -6.4,80 and 67 and 64
same,anisotropy,MDM2 [2]; Log[Macrocycle] M -6.7,83 and 68 and 74
same,anisotropy,MDM2 [2]; Log[Macrocycle] M -7.0,78 and 72 and 75
same,anisotropy,MDM2 [2]; Log[Macrocycle] M -7.3,86 and 75 and 80
same,anisotropy,MDM2 [2]; Log[Macrocycle] M -7.6,89 and 77 and 85
same,anisotropy,MDM2 [2]; Log[Macrocycle] M -7.9,88 and 77 and 82
same,anisotropy,MDM2 [2]; Log[Macrocycle] M -8.2,89 and 77 and 85
same,anisotropy,MDM2 [2]; Log[Macrocycle] M -8.5,91 and 80 and 78
same,Kd,MDM2 [3],600 ± 300 nM
O=C(/C=C/c1ccccc1)NC[C@@H]1NC(=O)[C@H]2CCCN(C2)C(=O)CCSSCCNC(=O)[C@H](Cc2c[nH]c3ccccc23)NC1=O [M8],Fraction bound (fraction fluorescent probe displaced),MDM2 [1]; [7],0.08
same,Fraction bound (fraction fluorescent probe displaced),MDM2 [1]; [8],0.25
same,Fraction bound (fraction fluorescent probe displaced),MDM2 [1]; [9],0.02
same,Fraction bound (fraction fluorescent probe displaced),MDM2 [1]; [10],-0.000869
same,Fraction bound (fraction fluorescent probe displaced),MDM2 [1]; [11],-0.0422
same,Fraction bound (fraction fluorescent probe displaced),MDM2 [1]; [12],-0.000869
same,Fraction bound (fraction fluorescent probe displaced),MDM2 [1]; [13],0.02
same,Fraction bound (fraction fluorescent probe displaced),MDM2 [1]; [14],0.02
same,Fraction bound (fraction fluorescent probe displaced),MDM2 [1]; [15],0.04
same,Fraction bound (fraction fluorescent probe displaced),MDM2 [1]; [16],-0.0422
same,Fraction bound (fraction fluorescent probe displaced),MDM2 [1]; [17],-0.0422
same,Fraction bound (fraction fluorescent probe displaced),MDM2 [1]; [18],-0.0216
same,Fraction bound (fraction fluorescent probe displaced),MDM2 [1]; [19],0.37
same,Fraction bound (fraction fluorescent probe displaced),MDM2 [1]; [20],0.04
same,Fraction bound (fraction fluorescent probe displaced),MDM2 [1]; [21],-0.13
same,Fraction bound (fraction fluorescent probe displaced),MDM2 [1]; [22],-0.0216
same,Fraction bound (fraction fluorescent probe displaced),MDM2 [1]; [23],-0.0216
same,Fraction bound (fraction fluorescent probe displaced),MDM2 [1]; [24],-0.21
same,Fraction bound (fraction fluorescent probe displaced),MDM2 [1]; [25],-0.17
same,Fraction bound (fraction fluorescent probe displaced),MDM2 [1]; [26],-0.23
same,IC50,MDM2 [2]; [27],900 nM
same,IC50,MDM2 [2]; [28],1000 nM
same,IC50,MDM2 [2]; [29],840 nM
same,IC50,MDM2 [2]; [30],860 nM
same,displacement of fluorescent peptide probe from MDM2,MDM2 [2],efficiently displaced
same,anisotropy,MDM2 [2]; Log[Macrocycle] M -4.0,50 and 44 and 45
same,anisotropy,MDM2 [2]; Log[Macrocycle] M -4.3,50 and 43 and 47
same,anisotropy,MDM2 [2]; Log[Macrocycle] M -4.6,52 and 45 and 51
same,anisotropy,MDM2 [2]; Log[Macrocycle] M -4.9,53 and 50 and 49
same,anisotropy,MDM2 [2]; Log[Macrocycle] M -5.2,59 and 42 and 53
same,anisotropy,MDM2 [2]; Log[Macrocycle] M -5.5,61 and 53 and 54
same,anisotropy,MDM2 [2]; Log[Macrocycle] M -5.8,67 and 55 and 59
same,anisotropy,MDM2 [2]; Log[Macrocycle] M -6.1,73 and 65 and 68
same,anisotropy,MDM2 [2]; Log[Macrocycle] M -6.4,80 and 68 and 73
same,anisotropy,MDM2 [2]; Log[Macrocycle] M -6.7,85 and 73 and 80
same,anisotropy,MDM2 [2]; Log[Macrocycle] M -7.0,87 (2×) and 82
same,anisotropy,MDM2 [2]; Log[Macrocycle] M -7.3,92 and 79 and 84
same,anisotropy,MDM2 [2]; Log[Macrocycle] M -7.6,94 and 80 and 85
same,anisotropy,MDM2 [2]; Log[Macrocycle] M -7.9,90 and 80 and 83
same,anisotropy,MDM2 [2]; Log[Macrocycle] M -8.2,94 and 77 and 85
same,anisotropy,MDM2 [2]; Log[Macrocycle] M -8.5,93 and 83 (2×)
same,displacement of fluorescent probe from MDM2,MDM2 [5],21%
CCCCCCOC(=O)NC(=N)c1ccc(NCc2nc3cc(C(=O)N(CCC(=O)OCC)c4ccccn4)ccc3n2C)cc1 [dabigatran etexilate],oral availability,[6],< 6.5%

# Reference: publication PMC9250534, “Synthesis and direct assay of large macrocycle diversities by combinatorial late-stage modification at picomole scale” (Nature Communications, 2022)
